Entries after “also recorded” stand apart in the source; their conditions may differ. Read-outs that look alike come from different tables or passages of the source.
Tests used:
[1] = tested on: DNA of MCF-7, MDA 468, KM12 and HCC 2998 cells; experiment: DNA adduct formation; type: cell-based, human; details: MCF-7, MDA 468, KM 12 and HCC 2998 cells; 10 μM, 24 hours
[2] = tested on: KM 12; experiment: MTT assay, 3 day exposure, KM12; type: cell-based, human; details: KM 12 (colon), read-out: GI50 values in cell lines, KM 12
Protocol: (§1) A range of compounds were evaluated in MTT assays following 3 day exposure against a panel of two human breast cancer cell lines MCF-7 (ER+) and MDA 468 (ER−), and two colon cancer cell lines KM12 and HCC 2998. In general the breast cell lines were more sensitive to the agents and the MDA 468 line the most sensitive of the four (Table 2). The benchmark active compound was 5-fluoro-2-(3,4-dimethoxyphenyl)benzothiazole (1) with GI50 values<0.1 nM against the two breast cell lines. […] The most interesting series of compounds were those combining a 5-fluoro group with two oxygenated substituents in the 3′,4′-positions where minor, seemingly conservative, structural changes were associated with a dramatic variations in activity (when compared to 1). […] In summary, this in vitro screen led to the identification of the fluorinated 2-(3,4-dimethoxyphenyl)benzothiazole structure as a novel antitumor pharmacophore with the 5-fluoro analogue (1) astride a pinnacle of activity.
(§2) The assays/methods used to generate the results referred to herein are well known to those skilled in the art and therefore it has not been necessary to describe them in detail.

[3] = tested on: MCF-7; experiment: MTT assay, 3 day exposure, MCF-7; type: cell-based; details: Homo sapiens, read-out: GI50 values in cell lines, MCF-7
Protocol: as §1, §2

[4] = tested on: MDA 468; experiment: MTT assay, 3 day exposure, MDA 468; type: cell-based; details: Homo sapiens, MDA 468 (breast), read-out: GI50 values in cell lines, MDA 468
Protocol: as §1, §2

[5] = tested on: NCI in vitro 60 human cancer cell panel; experiment: NCI in vitro 60 human cancer cell panel, sulforhodamine B assay; type: cell-based
Protocol: Results from the more extensive NCI in vitro 60 human cancer cell panel^15 corroborated the results (above). The mean GI50 values across the range of compounds (above), including the two series of esters (11-21) are an unremarkable 10-100 μM (data not shown); however, these values disguise significant cell selectivity. […] Full NCI mean GI50 graphs for compounds (1,2,3,4,101,102) are included herein as FIGS. 1 and 8 to 12.
The results shown on FIG. 1 were generated by treating the cells with an active agent for 48 hours, in this case compound 1, before determination of viability by sulforhodamine B assay.

[6] = tested on: MCF-7, MDA 468, KM12 and HCC 2998; experiment: MTT assay, panel of four cell lines, results in words; type: cell-based, human; details: compared to compound 1
Protocol: as §1

[7] = tested on: cyp lal; experiment: Induction of cyp lal protein expression by Western Blot; type: cell-based
Excerpt: These findings have been verified following examination of induction of cyp lal protein expression by Western Blot. The following cell lines were used to represent sensitive models: MCF-7, MDA 468 (breast carcinoma), KM12 and HCC 2998 (colon carcinoma) lines.

[8] = tested on: cyp lal; experiment: Induction of cyp lal gene transcription; type: cell-based
Protocol: These cell lines are known to be sensitive to compound 1 and 2-(4-amino-3-methylphenyl)-5-fluorobenzothiazole (102, 5F 203; NSC 703786; WO 95/06469) In cell lines which are sensitive to compound 1 only, cyp lal gene transcription was not induced.
The results shown in FIG. 2 were generated by treating the cells with 1 μM of an active agent for 24 hours before determination of changes in cyp lal gene expression.

[9] = tested on: HCC 2998; experiment: MTT assay, 3 day exposure, HCC 2998; type: cell-based; details: Homo sapiens, HCC 2998, 72 h, HCC 2998 (colon), MTT, 3 day exposure, triplicate; read-out: GI50 values in cell lines, HCC 2998
Protocol: as §1, §2

[10] = tested on: cyp lbl; experiment: Induction of cyp lbl gene transcription; type: cell-based
[11] = biological target: T1, cyp lal (Homo sapiens, UniProt P04798); experiment: Inhibition of cyp lal (EROD) activity, de-ethylation of ethoxyresorufin by cyp lal microsomes; type: biochemical
T1 construct: host or cells: microsomes
T1 sequence (P04798 1-512): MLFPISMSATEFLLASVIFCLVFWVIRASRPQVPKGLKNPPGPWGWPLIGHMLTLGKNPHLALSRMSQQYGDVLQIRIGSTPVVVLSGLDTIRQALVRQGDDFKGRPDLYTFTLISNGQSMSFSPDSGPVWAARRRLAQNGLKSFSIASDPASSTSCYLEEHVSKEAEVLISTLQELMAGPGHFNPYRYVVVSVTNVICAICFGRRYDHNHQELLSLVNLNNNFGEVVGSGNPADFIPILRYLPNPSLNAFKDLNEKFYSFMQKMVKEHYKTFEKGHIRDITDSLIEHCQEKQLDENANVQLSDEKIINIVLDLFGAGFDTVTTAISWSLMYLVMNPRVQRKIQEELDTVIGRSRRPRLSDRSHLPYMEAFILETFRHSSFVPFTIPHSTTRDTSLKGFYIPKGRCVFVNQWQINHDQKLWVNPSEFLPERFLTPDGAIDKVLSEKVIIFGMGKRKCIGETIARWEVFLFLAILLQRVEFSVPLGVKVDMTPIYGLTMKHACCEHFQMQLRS
Protocol: Compound 1 inhibits cyp lal (EROD) activity in a dose dependent manner (IC50=8 μM; FIG. 4).
The results shown in FIG. 4 were generated by measuring the de-ethylation of ethoxyresorufin by cyp lal microsomes in the absence and the presence of increasing concentrations of compound 1. DF 203 was used as a positive control.

[12] = Homo sapiens, KM12, 72 h, MTT, 3 day exposure, triplicate
[13] = MCF7, 72 h, MCF-7 (breast), MTT, 3 day exposure, triplicate
[14] = MCF7, MCF-7 (breast), value in nM
[15] = 72 h, MTT, 3 day exposure, triplicate

SMILES | DNA adducts formed [1] | GI50 [2, 12] [nM] | GI50 ([2]; value in nM) [nM] | melting point [°C] | GI50 [3, 13] [nM] | GI50 [3, 14] [nM] | GI50 [4, 15] [nM] | GI50 ([4]; value in nM) [nM] | sensitivity of cancer cell panels / antitumour activity in vitro ([5]; NCI mean GI50 graphs, FIGS. 1 and 8 to 12) | growth inhibitory potency in words [6] | induction of cyp lal protein ([7]; colon cell lines KM12 and HCC 2998) | induction of cyp lal protein ([7]; lysates of MCF-7 and MDA 468 breast cells) | induction of cyp lal gene transcription ([8]; MCF-7, T-47D, TK-10, NC1 and 1460 cells, 1 μM, 24 hours) | induction of cyp lal gene transcription ([8]; cell lines which are sensitive to compound 1 only) | GI50 [9] [nM] | GI50 ([5]; Homo sapiens, colon and NSCL sub-panels, 48 hours, read-out: GI50 values against some cell lines) [nM] | induction of cyp lbl gene transcription [10] | induction of cyp lbl transcription ([10]; certain compound 1-sensitive colon and lung carcinoma cells) | IC50 [11] [µM]
COc1ccc(-c2nc3c(F)cccc3s2)cc1OC [Compound 2, 4-Fluoro-2-(3,4-dimethoxyphenyl)benzothiazole] | One major adduct species | 850 | 78.4 | 129 | 5 | 2.9 | 5 | 3.4 | reduced activity against cancer cells when compared to compound 1; also recorded: substantial potent and selective antitumour activity; also recorded: potent (but attenuated compared to 1), activity in the colon and NSCL sub-panels | retained nanomolar growth inhibitory potency against one or more of the cell lines | – | – | – | – | – | – | – | – | –
COc1ccc(-c2nc3cc(F)ccc3s2)cc1OC [Compound 1, 2-(3,4-dimethoxyphenyl)-5-fluorobenzothiazole] | – | 290 | – | – | < 0.1 | < 0.1 | < 0.1 | < 0.1 | – | – | not induced | Induction of cyp lal protein was observed | able to induce cyp lal gene transcription | not induced | 0.25 | < 10 | can be induced | no induction of cyp-lbl transcription | 8
